Tests used:
Type in all cases: cell-based
[1] = tested on: immortalized human HaCaT keratinocytes; assay: Cell proliferation assay (MTT); settings: 72 h; for Effect on HaCaT cell viability/proliferation (MTT), in words / Effect on HaCaT cell viability (MTT), in words: serum-free DMEM; for Effect on HaCaT cell viability/proliferation (MTT), in words: whole range 1–50 μg/mL, vs. control without peptide, triplicate; for Effect on HaCaT cell viability (MTT), in words: peptide at 50 μg/mL; for Concentration above which the conjugate is cytotoxic: MTT, cell type not named in the sentence (keratinocytes and fibroblasts tested)
Description: (§1) In our study two kind of cells were used: immortalized human HaCaT keratinocytes (DKFZ Heidelberg, Germany) and primary dermal fibroblasts obtained from 3 healthy donors. Both types of the used cell lines were grown in Dulbecco's modified Eagle's medium (DMEM) (Sigma–Aldrich, Germany), that contained […] of glucose, […] of L-glutamine, sodium pyruvate and sodium bicarbonate. Additionally, medium was supplemented with 10% of FCS (fetal calf serum, Sigma-Aldrich, Germany), 100 U/mL of penicillin and 100 μg/mL streptomycin (Sigma-Aldrich, Germany). The cells were grown in culture dishes (BD, USA) under standard conditions in a humidified atmosphere with 5% CO2 at 37°C and medium was changed every 2 days.
(§2) The fibroblasts and keratinocytes were seeded at density of 4500 and 6000 cells per well, respectively, into 96-well plates suspended in a medium supplemented with 10% of FCS. After 24 h the media were exchanged with serum- and antibiotic- free DMEM and tested peptides dissolved in PBS were added yielding final concentration ranging from 1 to 50 μg/mL. Cells were incubated for the next 24 hours, when the medium was exchanged again and fresh portion of peptides (used at the same concentrations as previously) was added. Incubation was continued for the next 48 hours (the overall time of cell exposition to peptide was 72 h). At the end of the experiment cells were treated with 20 μL of MTT (5 mg/mL in PBS). After 3 h at 37°C under 5% CO2 medium was discarded and replaced by 6mM HCl in isopropanol. After 15 min when the purple crystals of formazan were fully solubilized, absorbance was read at 570 nm with a plate reader. The optical density reflects the level of cell viability as MTT is converted in purple formazan product only in the presence of viable mitochondria of the living cells.
Fig 1 Pro-proliferative activity of the tested peptides towards human keratinocytes (A) and fibroblasts (B). Cells were incubated for 72 hours in serum-free DMEM medium in the presence of peptides applied at concentrations of 1,10, 25 and 50 μg/mL, respectively. The data represents results of MTT assay expressed as the percentage of the cell viability in comparison to their control sample (cells incubated in serum-free DMEM without tested peptides), additional positive control corresponds to the cells incubated in the presence of 10% FCS. All experiments were performed independently in triplicate. *P < 0.05, **P < 0.01, ***P < 0.001 vs. control.
In order to evaluate a long-term effect of peptides, experiments were carried out for 72 hours. Before addition of the tested compounds, the cell medium was exchanged for the fresh one not containing any serum or antibiotic.

B. cereus = settings: broth microdilution, Mueller-Hinton broth, approximately 10^5 CFU/mL, 37°C, 24 h, absorbance 590 nm, at least triplicate
Description: (§3) Luria-Bertani broth (LB) and Sabouraud Dextrose broth (SB) (Biocorp, Poland) were used for cultivation of bacteria and fungi strains, respectively. Antimicrobial activity of peptides was analyzed through determination of MIC (minimal inhibitory concentration) parameter according to the standard microdilution technique performed on 96-well plates. Mueller-Hinton broth (MHB) was used as the working medium for all bacterial strains, while in case of fungi it was additionally supplemented with 2% glucose.
(§4) Briefly, inoculum was prepared from freshly grown cultures of microorganisms being at their exponential phase of growth. Each well of 96-well plates containing 100 μL of serially diluted peptides in PBS (phosphate buffer saline) at concentration ranging from 2 to 250 μg/mL were inoculated with 100 μL of approximately 10^5 CFU/mL of bacterial suspension or about 2.5 x 10^3 CFU/mL of fungi suspended in a double concentrated Mueller-Hinton broth (supplemented with 2% glucose for Candida spps.). Then plates were incubated overnight at 37°C and absorbance was read at 590 nm after 24 h. Cultures without peptide were treated as positive control, while uninoculated Mueller-Hinton broth was defined as negative control. All measurements were run at least in triplicate.
(§5) All peptides were screened against the wide range of microorganisms, including Gram-negative, Gram-positive bacteria and fungi from Candida species (Table 2). Broth microdilution method for MIC determination was used as a standard procedure. All assays were performed on liquid Mueller-Hinton broth, which was additionally supplemented with 2% glucose when fungicidal activity towards Candida spps. was analyzed.

B. subtilis = settings: broth microdilution, Mueller-Hinton broth, approximately 10^5 CFU/mL, 37°C, 24 h, absorbance 590 nm, at least triplicate
Description: as §3, §4, §5

[2] = tested on: human primary dermal fibroblasts; assay: Cell proliferation assay (MTT); settings: 72 h, serum-free DMEM, peptide at 25 and 50 μg/mL
Description: Biopsies of healthy human skin were obtained aseptically from three donors (47–69 years old) undergoing circumcision after obtaining their written informed consent. All the procedures were approved by the Ethics Committee of Medical University of Gdansk (NKEBN/483/2011. Issued: 2011-12-19). The samples were washed several times with sterile PBS (Sigma-Aldrich, Germany) containing antibiotic (200 U/mL penicillin and 200 μg/mL streptomycin), after which, the subcutaneous tissue was cut off with a sharp blade. The resulting sheets were cut into small fragments, washed two times with sterile PBS and treated with 6 U/mL dispase II (BD, USA) overnight at 4°C to separate epidermis and dermis. The dermis was then digested with 1.0 mg/mL collagenase type I (from Clostridium histolyticum Sigma-Aldrich, Germany) for 2 hours at 37°C to isolate fibroblasts. Cells were used between the 2nd and 4th passage in all experiments.
as §1
as §2, with “At the end of the experiment cells were treated with 20 μL of MTT (5 mg/mL in PBS). After 3 h at 37°C under 5% CO2 medium was discarded and replaced by 6mM HCl in isopropanol.” left out, “The optical density reflects the level of cell viability as MTT is converted in purple formazan product only in the presence of viable mitochondria of the living cells.” left out
Fig 1 Pro-proliferative activity of the tested peptides towards human keratinocytes (A) and fibroblasts (B). […] The data represents results of MTT assay expressed as the percentage of the cell viability in comparison to their control sample (cells incubated in serum-free DMEM without tested peptides), additional positive control corresponds to the cells incubated in the presence of 10% FCS. […]

| Substance | Effect on HaCaT cell viability/proliferation (MTT), in words [1] | MIC B. cereus (B. cereus) | MIC B. subtilis (B. subtilis) | Effect on fibroblast viability (MTT), in words [2] | Effect on HaCaT cell viability (MTT), in words [1] | Concentration above which the conjugate is cytotoxic [1] |
| --- | --- | --- | --- | --- | --- | --- |
| IKKILSKIKKLL-NH2 [DK5, Lys-rich derivative of amphibian AMP temporin-1CEb, …-NH2, reference compound] | negative dose-response relationship | >125 µg/mL | 15.6 µg/mL | – | – | – |
| YAGFLR-PEG-IKKILSKIKKLL-NH2 [DAL-PEG-DK5, conjugate of dalargin and DK5 joined by PEG-linker] | negative dose-response relationship | 25 µg/mL | 2.0 µg/mL | lowest cell viability | lowest cell viability | higher than 25 μg/mL |
| YAGFLR-PEG-IKKILSKIKKLLK-NH2 [DAL-PEG-LK6, conjugate of dalargin and LK6 joined by PEG-linker] | – | 12.5 µg/mL | 7.8 µg/mL | lowest cell viability | cytotoxic effect | higher than 25 μg/mL |
